The source of these data is paper PMC9151520 (Archives of Toxicology, 2022).

Test [1] relates to p53 signaling (p53RE-bla HCT-116 cells).
Test [2] has the same test system. The test can be described thus: cells. The format is cell-based.
Test [3] relates to p53RE-bla HCT-116 cells.
The subject of test [4] is p53 signaling (p53RE-bla HCT-116 cells). This is another data set of the same source.
The mark [5] stands for this setting: Homo sapiens, HCT-116, read-out: p53 activation EC50, cherry pick confirmation.
The mark [6] stands for this setting: Homo sapiens, HCT-116, read-out: p53 activation EC50, primary screening.
Where [7] appears, read: Homo sapiens, HCT-116, read-out: p53 activation efficacy, cherry pick confirmation.
[8] abbreviates: Homo sapiens, HCT-116, read-out: p53 activation efficacy, primary screening.
[9] abbreviates: read-out: EC50, p53 activation, cherry pick confirmation.

Like-named read-outs stand apart in the source and are kept apart here.

For orientation: EC50 means the midpoint of the concentration-response curve. Turning to `CCCCNC(=O)n1c(NC(=O)OC)nc2ccccc21` [Benomyl], in test [1], the “p53 activation EC50, cherry pick confirmation” value was “inactive”; the “p53 activation EC50, primary screening” value was “inactive”; the “p53 activation efficacy, cherry pick confirmation” value is “inactive”; the “p53 activation efficacy, primary screening” value is “inactive”. Further, in test [2] (setting [5]), the EC50 worked out at 8.93 µM. The EC50 in test [2] (setting [6]) was 11.4 µM. Moreover, the Emax in test [2] (setting [7]) is 38.5%. In addition, in test [2] (setting [8]), the Emax worked out at 88.9%. Besides, in test [3], the “Viability EC50, cherry pick confirmation” value was “inactive”; the “Viability EC50, primary screening” value was “inactive”; the “Viability efficacy, cherry pick confirmation” value is “inactive”; the “Viability efficacy, primary screening” value was “inactive”. In test [4], the “p53 activation EC50, cherry pick confirmation” value is “inactive”; the “p53 activation EC50, primary screening” value is “inactive”; the “p53 activation efficacy, cherry pick confirmation” value is “inactive”; the “p53 activation efficacy, primary screening” value was “inactive”.

As to `O=C(c1ccccc1)c1ccccc1` [Benzophenone], in test [1], the “p53 activation EC50, cherry pick confirmation” value was “inactive” and the “p53 activation efficacy, cherry pick confirmation” value was “inactive”. Also, in test [2], the “p53 activation EC50, cherry pick confirmation” value is “inactive”; the “p53 activation EC50, primary screening” value was “inactive”; the “p53 activation efficacy, cherry pick confirmation” value was “inactive”; the “p53 activation efficacy, primary screening” value is “inactive”. Besides, in test [3], the “Viability EC50, cherry pick confirmation” value was “inactive”; the “Viability EC50, primary screening” value is “inactive”; the “Viability efficacy, cherry pick confirmation” value was “inactive”; the “Viability efficacy, primary screening” value was “inactive”. In test [4], the “p53 activation EC50, cherry pick confirmation” value is “inactive” and the “p53 activation efficacy, cherry pick confirmation” value is “inactive”.

Regarding `c1cc(OCC2CO2)ccc1Cc1ccc(OCC2CO2)cc1` (stereo not shown) [Bis[4-(glycidyloxy)phenyl]methane], in test [1], the “EC50, p53 activation, cherry pick confirmation” value is “inactive”; the “EC50, p53 activation, primary screening” value is “inactive”; the “Efficacy, p53 activation, cherry pick confirmation” value is “inactive”; the “Efficacy, p53 activation, primary screening” value was “inactive”. Also, in test [2], the “Efficacy, p53 activation, cherry pick confirmation” value turned out to be 31.4403 and the “Efficacy, p53 activation, primary screening” value is 46.3017. Besides, the EC50 in test [2] (setting [9]) was 26.4 µM. In addition, the EC50 in test [2] (read-out: EC50, p53 activation, primary screening) amounted to 47.6 µM. Also, in test [3], the “EC50, viability, cherry pick confirmation” value was “inactive”; the “EC50, viability, primary screening” value is “inactive”; the “Efficacy, viability, cherry pick confirmation” value is “inactive”; the “Efficacy, viability, primary screening” value was “inactive”. Moreover, in test [4], the “EC50, p53 activation, cherry pick confirmation” value was “inactive”; the “EC50, p53 activation, primary screening” value was “inactive”; the “Efficacy, p53 activation, cherry pick confirmation” value was “inactive”; the “Efficacy, p53 activation, primary screening” value was “inactive”.

As to `CC(=O)Oc1ccc(C2(c3ccc(OC(C)=O)cc3)Oc3ccccc3NC2=O)cc1` [Bisoxatin acetate], in test [1], the “p53 activation EC50, cherry pick confirmation” value is “inactive”; the “p53 activation EC50, primary screening” value was “inactive”; the “p53 activation efficacy, cherry pick confirmation” value is “inactive”; the “p53 activation efficacy, primary screening” value was “inactive”. For the same compound, the EC50 in test [2] (setting [5]) was 0.665 µM. Further, the EC50 in test [2] (setting [6]) is 3.99 µM. In addition, the Emax in test [2] (setting [7]) worked out at 31.4%. Also, the Emax in test [2] (setting [8]) amounted to 63.9%. For the same compound, in test [3], the “Viability EC50, cherry pick confirmation” value is “inactive”; the “Viability EC50, primary screening” value was “inactive”; the “Viability efficacy, cherry pick confirmation” value was “inactive”; the “Viability efficacy, primary screening” value was “inactive”. In addition, in test [4], the “p53 activation EC50, cherry pick confirmation” value was “inactive”; the “p53 activation EC50, primary screening” value was “inactive”; the “p53 activation efficacy, cherry pick confirmation” value was “inactive”; the “p53 activation efficacy, primary screening” value is “inactive”.

Regarding `CO.COc1cc(Nc2c(C#N)cnc3cc(OCCCN4CCN(C)CC4)c(OC)cc23)c(Cl)cc1Cl` [Bosutinib methanoate], in test [1], the “p53 activation EC50, cherry pick confirmation” value is “inactive”; the “p53 activation EC50, primary screening” value was “inactive”; the “p53 activation efficacy, cherry pick confirmation” value was “inactive”; the “p53 activation efficacy, primary screening” value was “inactive”. In test [2], the “p53 activation efficacy, cherry pick confirmation” value turned out to be 36.685 and the “p53 activation efficacy, primary screening” value was found to be 29.3917. The half-maximal effective concentration (EC50) in test [2] (read-out: p53 activation EC50, cherry pick confirmation) was 17.3 µM. Further, the EC50 in test [2] (read-out: p53 activation EC50, primary screening) turned out to be 15.4 µM. In addition, in test [3], the “Viability EC50, cherry pick confirmation” value was “inactive”; the “Viability EC50, primary screening” value is “inactive”; the “Viability efficacy, cherry pick confirmation” value is “inactive”; the “Viability efficacy, primary screening” value is “inactive”. For the same compound, in test [4], the “p53 activation EC50, cherry pick confirmation” value is “inactive”; the “p53 activation EC50, primary screening” value was “inactive”; the “p53 activation efficacy, cherry pick confirmation” value was “inactive”; the “p53 activation efficacy, primary screening” value is “inactive”.

With `CCOP(=S)(OCC)Oc1cc(Cl)c(Br)cc1Cl` [Bromophos-ethyl], the “EC50, p53 activation, cherry pick confirmation” value in test [1] is “inactive”. In test [2], the “EC50, p53 activation, primary screening” value is “inactive”; the “Efficacy, p53 activation, cherry pick confirmation” value is 38.522; the “Efficacy, p53 activation, primary screening” value is “inactive”. For the same compound, in test [2] (setting [9]), the EC50 stood at 33.2 µM. Moreover, in test [3], the “EC50, viability, cherry pick confirmation” value was “inactive”; the “EC50, viability, primary screening” value is “inactive”; the “Efficacy, viability, cherry pick confirmation” value is “inactive”; the “Efficacy, viability, primary screening” value is “inactive”. In test [4], this compound came in with an EC50 of 12.5 µM. For the same compound, the EC50 in test [4] (setting [9]) was determined as 6.31 µM.

`COC(=O)Nc1nc2ccccc2[nH]1` [Carbendazim]: in test [1], the “p53 activation EC50, cherry pick confirmation” value was “inactive”; the “p53 activation EC50, primary screening” value was “inactive”; the “p53 activation efficacy, cherry pick confirmation” value was “inactive”; the “p53 activation efficacy, primary screening” value was “inactive”. For the same compound, the concentration for a half-maximal effect (EC50) in test [2] (setting [5]) worked out at 11.9 µM. For the same compound, the EC50 in test [2] (setting [6]) is 10.3 µM. For the same compound, in test [2] (setting [7]), the Emax was determined as 62.2%. Further, in test [2] (setting [8]), the Emax is 67%. In test [3], the “Viability EC50, cherry pick confirmation” value was “inactive”; the “Viability EC50, primary screening” value is “inactive”; the “Viability efficacy, cherry pick confirmation” value is “inactive”; the “Viability efficacy, primary screening” value is “inactive”. Moreover, in test [4], the “p53 activation EC50, cherry pick confirmation” value is “inactive”; the “p53 activation EC50, primary screening” value is “inactive”; the “p53 activation efficacy, cherry pick confirmation” value was “inactive”; the “p53 activation efficacy, primary screening” value was “inactive”.

Regarding `CNC(=O)Oc1cccc2c1OC(C)(C)C2` [Carbofuran], in test [1], the “p53 activation EC50” value was “inactive”. Moreover, in test [2], the “p53 activation EC50” value was “inactive” and the p53 activation efficacy entry was “inactive”. Also, in test [3], the “Viability EC50” value is “inactive” and the Viability efficacy entry was “inactive”. Further, the “p53 activation EC50” value in test [4] was “inactive”.
